Patent publication US6800650B2, “Pyridine and quinoline derivatives” (Hoffmann-La Roche Inc., priority 2002, dated 2004)

What follows are compounds tested against T1, human DPP-IV (Homo sapiens, UniProt P27487) (assay: DPP-IV activity assay (colorimetric / fluorometric), IC50 determination). Conditions: natural human DPP-IV from human plasma pool or recombinant human DPP-IV; 37° C., pH 7.8.
T1 construct: made in house; host or cells: Pichia pastoris, purified from the culture medium
T1 sequence (P27487 31-766): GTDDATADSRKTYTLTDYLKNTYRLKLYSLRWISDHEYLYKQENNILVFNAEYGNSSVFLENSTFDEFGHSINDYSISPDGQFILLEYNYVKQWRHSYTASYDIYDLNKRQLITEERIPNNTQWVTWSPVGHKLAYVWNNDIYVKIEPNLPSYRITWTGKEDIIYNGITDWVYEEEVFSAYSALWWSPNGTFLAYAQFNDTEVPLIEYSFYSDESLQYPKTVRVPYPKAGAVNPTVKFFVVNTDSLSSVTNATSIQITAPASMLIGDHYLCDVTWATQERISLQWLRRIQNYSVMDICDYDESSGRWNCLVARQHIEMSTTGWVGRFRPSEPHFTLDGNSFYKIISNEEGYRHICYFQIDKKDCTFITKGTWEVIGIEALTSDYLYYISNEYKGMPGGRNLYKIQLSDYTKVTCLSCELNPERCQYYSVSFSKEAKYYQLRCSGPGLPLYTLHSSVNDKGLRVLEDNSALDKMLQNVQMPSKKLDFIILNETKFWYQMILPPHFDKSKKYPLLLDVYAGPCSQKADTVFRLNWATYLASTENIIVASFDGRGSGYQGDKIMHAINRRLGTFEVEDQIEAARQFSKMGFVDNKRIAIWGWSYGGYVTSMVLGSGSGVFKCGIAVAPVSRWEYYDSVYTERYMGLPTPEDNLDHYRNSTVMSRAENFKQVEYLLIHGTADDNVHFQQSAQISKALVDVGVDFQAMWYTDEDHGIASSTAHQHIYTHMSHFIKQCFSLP
Type: biochemical
Description: The following tests were carried out in order to determine the activity of the compounds of formula I.
Activity of DPP-IV inhibitors are tested with natural human DPP-IV derived from a human plasma pool or with recombinant human DPP-IV. Human citrate plasma from different donors is pooled, filtered through a 0.2 micron membrane under sterile conditions, and aliquots of 1 ml are shock frozen and stored at −120° C. until used. In the colorimetric DPP-IV assay 5 to 10 μl human plasma, and in the fluorometric assay 1.0 μl of human plasma in a total assay volume of 100 μl is used as an enzyme source. The cDNA of the human DPP-IV sequence of amino acid 31- to 766, restricted for the N-terminus and the transmembrane domain, is cloned into pichia pastoris. The sequence is available under Accession Number NM_001935. It is also disclosed, for example, in Misumi et al. (1992), molecular cloning and sequence analysis of human dipeptidyl peptidase IV, a serine proteinase of the cell surface. Biochim Biophys. Acta 1131(3), 333-336. Human DPP-IV is expressed and purified from the culture medium using conventional column chromatography including size exclusion and anion and cation chromatography. The purity of the final enzyme preparation of Coomassie blue SDS-PAGE is >95%. In the colorimetric DPP-IV assay 20 ng rec.-h DPP-IV and in the fluorometric assay 2 ng rec-h DPP-IV in a total assay volume of 100 μl is used as an enzyme source.
In the fluorogenic assay Ala-Pro-7-amido-4-trifluoromethylcoumarin (Calbiochem No 125510) is used as a substrate. A 20 mM stock solution in 10% DMF/H2O is stored at −20° C. until use. In IC50 determinations a final substrate concentration of 50 μM is used. In assays to determine kinetic parameters as Km, Vmax, Ki, the substrate concentration is varied between 10 μM and 500 μM.
In the colorimetric assay H-Ala-Pro-pNA.HCl (Bachem L-1115) is used as a substrate. A 10 mM stock solution in 10% MeOH/H2O is stored at −20° C. until use. In IC50 determinations a final substrate concentration of 200 μM is used. In assays to determine kinetic parameters as Km, Vmax, Ki, the substrate concentration is varied between 100 μM and 2000 μM.
Fluorescence is detected in a Perkin Elmer Luminescence Spectrometer LS 50B at an excitation wavelength of 400 nm and an emission wavelength of 505 nm continuously every 15 seconds for 10 to 30 minutes. Initial rate constants are calculated by best fit linear regression.
The absorption of pNA i.e., para-nitroanilin, liberated from the colorimetric substrate is detected in a Packard SpectraCount at […] continuously every 2 minutes for 30 to 120 minutes. Initial rate constants are calculated by best fit linear regression.
DPP-IV activity assays are performed in 96 well plates at 37° C. in a total assay volume of 100 μl. The assay buffer consists of 50 mM Tris/HCl pH 7.8 containing 0.1 mg/ml BSA and 100 mM NaCl. Test compounds are solved in 100% DMSO, diluted to the desired concentration in 10% DMSO/H2O. The final DMSO concentration in the assay is 1% (v/v). At this concentration enzyme inactivation by DMSO is <5%. Compounds are with (10 minutes at 37° C.) and without preincubation with the enzyme. Enzyme reactions are started with substrate application followed by immediate mixing.
IC50 determinations of test compounds are calculated by non-linear best fit regression of the DPP-IV inhibition of at least 5 different compound concentrations. Kinetic parameters of the enzyme reaction are calculated at least 5 different substrate concentrations and at least 5 different test compound concentrations.
In the case of `NCc1c(N)nc2c(c1-c1ccc(Cl)cc1Cl)CCc1ccccc1-2` [Example 3, 3-Aminomethyl-4-(2,4-dichloro-phenyl)-5,6-dihydro-benzo[h]quinolin-2-ylamine], the IC50 is reported as 45 nM. `COc1cc2c(cc1OC)-c1nc(N)c(CN)c(-c3ccc(Cl)cc3Cl)c1C2` [Example 7, 3-Aminomethyl-4-(2,4-dichloro-phenyl)-7,8-dimethoxy-5H-indeno[1,2-b]pyridin-2-ylamine] showed an IC50 of 2.7 nM. `NCc1c(N)nc2c(c1-c1ccc(Cl)cc1Cl)COc1ccccc1-2` [Example 9, 2-Aminomethyl-1-(2,4-dichloro-phenyl)-10H-9-oxa-4-aza-phenanthren-3-ylamine] showed an IC50 of 18 nM. With `NCc1c(N)nc2c(c1-c1ccc(Cl)cc1Cl)CCc1sccc1-2` [Example 10, 3-Aminomethyl-4-(2,4-dichloro-phenyl)-5,6-dihydro-thieno[2,3-h]quinolin-2-ylamine] the IC50 was 80 nM. Work on `Cc1ccc(-c2c(CN)c(N)nc3ccccc23)cc1` [Example 25, 3-Aminomethyl-4-p-tolyl-quinolin-2-ylamine] yielded an IC50 of 1910 nM. `NCc1c(N)nc2ccc(Cl)cc2c1-c1ccccc1Cl` [Example 28, 3-Aminomethyl-6-chloro-4-(2-chloro-phenyl)-quinolin-2-ylamine] gave an IC50 of 1590 nM. Compound `NCc1c(N)nc2ccccc2c1-c1ccccc1Cl` [Example 32, 3-Aminomethyl-4-(2-chloro-phenyl)-quinolin-2-ylamine] has an IC50 of 366 nM.
